Data as given in patent US20140005163A1 (NOVARTIS AG, priority 2010, published 2014).
Converted amounts (≈) assume the structure as drawn. Read-outs that look alike come from different tables or passages of the source.

Columns and labels:
[1] = Solubility at pH 6.8; assay type: physicochemical
How it was run: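 Solubility was measured at pH 6.8 following the cited Zhou et al. (2007) procedure.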

[2] = target: T1, PI3K gamma (Homo sapiens, UniProt P48736); test: PI3K gamma kinase assay (Kinase-Glo luminescence); assay type: biochemical
T1 construct: His tag (C); made in house; host or cells: baculovirus (pVL1393); Tn5 or TiniPro insect cells; construct from Roger Williams lab, MRC LMB
Experimental: In a more preferred assay, the kinase reaction is performed in a final volume of 10 μL per well of a low volume non binding CORNING, 384 well black plate (Cat. No. #3676). The final concentrations of ATP and phosphatidyl inositol (PI) in the assay are 1 μM and 10 μg/mL respectively. The reaction is started by the addition of ATP.
The components of the assay are added per well as follows:
[…] in 90% DMSO per well, in columns 1-20, 8 concentrations (1/3 and 1/3.33 serial dilution step) in single. • Low control: […] of 90% DMSO in half the wells of columns 23-24 (0.45% in final). • High control: […] of reference compound (e.g. compound of Example 7 in WO 2006/122806) in the other half of columns 23-24 (2.5 μM in final). • Standard: […] of reference compound as just mentioned diluted as the test compounds in columns 21-22 • 20 mL ‘buffer’ are prepared per assay: • 200 μL of 1M TRIS HCl pH7.5 (10 mM in final) • 60 μL of 1M MgCl2 (3 mM in final) • 500 μL of 2M NaCl (50 mM in final) • 100 μL of 10% CHAPS (0.05% in final) • 200 μL of 100 mM DTT (1 mM in final) • 18.94 mL of nanopure water • 10 mL ‘PI’ are prepared per assay: • 200 μL of 1 mg/ml L-alpha-Phosphatidylinositol (Liver Bovine, Avanti Polar Lipids Cat. No. 840042C MW=909.12) prepared in 3% OctylGlucoside (10 μg/ml in final) • 9.8 mL of ‘buffer’ • 10 mL ‘ATP’ are prepared per assay: • 6.7 μL of 3 mM stock of ATP giving a final concentration of 1 μM per well • 10 mL of ‘buffer’ • 2.5 mL of each PI3K construct are prepared per assay in ‘PI’ with the following final concentration: • 10 nM PI3K alfa EMV B1075 • 25 nM beta EMV BV949 • 10 nM delta EMV BV1060 • 150 nM gamma EMV BV950 • 5 μL of ‘PI/PI3K’ are added per well. • 5 μl ‘ATP’ are added per well to start the reaction. • The plates are then incubated at room temperature for 60 minutes (alfa, beta, delta) or 120 minutes (gamma). • The reaction is terminated by the addition of 10 μL Kinase-Glo (Promega Cat. No. #6714). • The assay plates are read after 10 minutes in Synergy 2 reader (BioTek, Vermont USA) with an integration time of 100 milliseconds and sensitivity set to 191. • Output: The High control is around 60'000 counts and the Low control is 30'000 or lower • This luminescence assay gives a useful Z′ ratio between 0.4 and 0.7
IC50 is determined by a four parameter curve fitting routine that comes along with “excel fit”. […] Alternatively, IC50 values are calculated using idbsXLfit model 204, which is a 4 parameter logistic model.

[3] = target: T2, PI3K delta (Homo sapiens, UniProt O00329); test: PI3K delta kinase assay (Kinase-Glo luminescence); assay type: biochemical
T2 construct: for the full-length p110-d subunit are generated and fused by overlapping PCR; p85(iSH2) fusion partner (see partner chain) (N); His tag (C); made in house; host or cells: baculovirus; Tn5 (Trichoplusia ni) or TiniPro insect cells
How it was run: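 Construct BV-1060, p85 iSH2–linker–full-length p110δ, His-tagged, at 10 nM, with 1 μM ATP and 10 μg/mL phosphatidylinositol in pH 7.5 Tris, 3 mM MgCl2, 50 mM NaCl, 0.05% CHAPS. Run 60 min at room temperature; remaining ATP read by Kinase-Glo luminescence; IC50 from 4-parameter logistic fit of 8 concentrations.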

[4] = target: T3, PI3K alpha (Homo sapiens, UniProt P42336); test: PI3K alpha kinase assay (Kinase-Glo luminescence); assay type: biochemical
T3 construct: p85(iSH2) fusion partner (see partner chain) (N); His tag (C); made in house; host or cells: baculovirus; Tn5 (Trichoplusia ni) or TiniPro insect cells
How it was run: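 PI3K alpha at 10 nM with 1 μM ATP and 10 μg/mL phosphatidylinositol in 10 mM TRIS pH 7.5, 3 mM MgCl2, 50 mM NaCl, 0.05% CHAPS, 1 mM DTT, 60 min at room temperature. Remaining ATP read by Kinase-Glo luminescence. IC50 by 4-parameter fit over 8 concentrations.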

[5] = tested on: PKB Ser473 phosphorylation in Rat1-myr-HA-p110 alpha cells; test: Reverse protein array assay, PKB Ser473 phosphorylation in Rat1-myr-p110 alpha cells; assay type: cell-based; settings: 0.5 h, pAkt Ser473, 30 minutes compound incubation, read-out: p-PKB IC50
How it was run: (§1)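 Measured: PKB Ser473 phosphorylation by reverse protein array in Rat1 cells expressing myr-HA-p110 alpha, beta or delta, after 30 min compound treatment at 37 °C with 0.2% DMSO vehicle.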

[6] = target: T4, PI3K beta (Homo sapiens, UniProt P42338); test: PI3K beta kinase assay (Kinase-Glo luminescence); assay type: biochemical
T4 construct: for the full-length p110-b subunit are generated and fused by overlapping PCR; p85(iSH2) fusion partner (see partner chain) (N); His tag (C); made in house; host or cells: baculovirus; Tn5 (Trichoplusia ni) or TiniPro insect cells
How it was run: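 Enzyme: BV949 p85(iSH2)-Gly linker-p110β FL-His, 25 nM. Substrate: PI 10 μg/mL. ATP: 1 μM, added to start. Buffer: Tris pH 7.5 10 mM, MgCl2 3 mM, NaCl 50 mM, CHAPS 0.05%, DTT 1 mM. RT, 60 min. Readout: Kinase-Glo. IC50 by 4-parameter fit.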

[7] = target: T5, mTOR (Homo sapiens, UniProt P42345); test: Biochemical assay for m-TOR by TR-FRET; settings: 8 μM ATP, 400 nM GFP-4EBP1, 0.5 nM mTOR
T5 construct: purchased Invitrogen Corporation (Carlsbad/CA, USA) PV4753
How it was run: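 Steps: ATP (8 μM final) plus GFP-4EBP1 (400 nM final) combined with mTOR (0.5 nM final), incubated at rt; buffer HEPES pH 7.5 with 10 mM MnCl2, NaCl, EGTA, DTT. Then stopped with EDTA/Tb3+-anti-p4EBP1 pT46 Ab (0.5 nM). Plates read after 15 min.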

[8] = tested on: PKB Ser473 phosphorylation in Rat1-myr-HA-p110 beta cells; test: Reverse protein array assay, PKB Ser473 phosphorylation in Rat1-myr-p110 beta cells; assay type: cell-based; settings: 0.5 h, pAkt Ser473, 30 minutes incubation, read-out: p-PKB IC50
How it was run: as §1

[9] = tested on: PKB Ser473 phosphorylation in Rat1-myr-HA-p110 delta cells; test: Reverse protein array assay, PKB Ser473 phosphorylation in Rat1-myr-p110 delta cells; assay type: cell-based; settings: read-out: p-PKB IC50
How it was run: as §1

[10] = tested on: S6 Ribosomal Protein phosphorylation Ser235/236 in TSC1 null mouse embryo fibroblast (MEF) cells; test: Reverse protein array assay, S6 Ribosomal Protein phosphorylation Ser235/236 in TSC1 null MEF cells; assay type: cell-based; settings: 1 h, pS6 ribosomal protein Ser235/236, 60 minutes incubation, read-out: p-S6 IC50
How it was run: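 TSC1−/− MEFs, seeded and held ≥20 h at 37 °C/5% CO2, were exposed to 8-step serial compound dilutions (0.02% DMSO final; DMSO vehicle control) for 60 min at 37 °C. Cells were then lysed on ice for 10 min and lysates spotted onto reverse protein array chips.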

[11] = pH 6.8, aqueous buffer, thermodynamic from solid, read-out: solubility

T2 sequence (O00329 with tags, fused parts or gaps limits assumed): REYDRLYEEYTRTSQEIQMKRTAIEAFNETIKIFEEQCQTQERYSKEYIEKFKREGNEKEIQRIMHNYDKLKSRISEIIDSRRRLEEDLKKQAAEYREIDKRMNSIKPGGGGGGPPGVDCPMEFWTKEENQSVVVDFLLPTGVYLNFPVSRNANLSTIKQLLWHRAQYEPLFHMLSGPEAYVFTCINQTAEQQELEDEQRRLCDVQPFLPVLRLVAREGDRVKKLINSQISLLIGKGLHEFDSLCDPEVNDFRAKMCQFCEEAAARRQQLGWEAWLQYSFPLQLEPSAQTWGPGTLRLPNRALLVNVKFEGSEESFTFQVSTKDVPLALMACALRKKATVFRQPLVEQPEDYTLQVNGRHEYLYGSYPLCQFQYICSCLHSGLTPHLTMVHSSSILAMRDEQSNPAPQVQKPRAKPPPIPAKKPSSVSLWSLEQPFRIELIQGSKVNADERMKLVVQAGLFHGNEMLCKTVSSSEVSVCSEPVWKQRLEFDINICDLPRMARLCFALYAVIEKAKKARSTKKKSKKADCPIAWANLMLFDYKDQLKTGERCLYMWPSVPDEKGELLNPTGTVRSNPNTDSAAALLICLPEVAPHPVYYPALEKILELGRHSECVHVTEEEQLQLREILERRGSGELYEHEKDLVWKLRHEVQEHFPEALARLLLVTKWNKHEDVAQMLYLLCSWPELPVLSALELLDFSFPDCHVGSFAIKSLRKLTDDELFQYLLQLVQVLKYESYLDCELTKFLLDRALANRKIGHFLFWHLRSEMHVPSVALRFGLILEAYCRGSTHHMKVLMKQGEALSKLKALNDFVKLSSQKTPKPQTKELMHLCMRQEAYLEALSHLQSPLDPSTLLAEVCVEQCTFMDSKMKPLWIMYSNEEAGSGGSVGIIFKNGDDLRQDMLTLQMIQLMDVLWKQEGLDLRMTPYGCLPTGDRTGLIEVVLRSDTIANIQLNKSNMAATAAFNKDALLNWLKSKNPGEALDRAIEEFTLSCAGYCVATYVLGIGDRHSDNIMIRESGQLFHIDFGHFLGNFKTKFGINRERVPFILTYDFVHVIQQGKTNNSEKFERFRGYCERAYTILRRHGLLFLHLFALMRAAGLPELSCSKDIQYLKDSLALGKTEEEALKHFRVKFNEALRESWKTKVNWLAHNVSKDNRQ
T5 sequence (P42345 1360-2549 limits assumed): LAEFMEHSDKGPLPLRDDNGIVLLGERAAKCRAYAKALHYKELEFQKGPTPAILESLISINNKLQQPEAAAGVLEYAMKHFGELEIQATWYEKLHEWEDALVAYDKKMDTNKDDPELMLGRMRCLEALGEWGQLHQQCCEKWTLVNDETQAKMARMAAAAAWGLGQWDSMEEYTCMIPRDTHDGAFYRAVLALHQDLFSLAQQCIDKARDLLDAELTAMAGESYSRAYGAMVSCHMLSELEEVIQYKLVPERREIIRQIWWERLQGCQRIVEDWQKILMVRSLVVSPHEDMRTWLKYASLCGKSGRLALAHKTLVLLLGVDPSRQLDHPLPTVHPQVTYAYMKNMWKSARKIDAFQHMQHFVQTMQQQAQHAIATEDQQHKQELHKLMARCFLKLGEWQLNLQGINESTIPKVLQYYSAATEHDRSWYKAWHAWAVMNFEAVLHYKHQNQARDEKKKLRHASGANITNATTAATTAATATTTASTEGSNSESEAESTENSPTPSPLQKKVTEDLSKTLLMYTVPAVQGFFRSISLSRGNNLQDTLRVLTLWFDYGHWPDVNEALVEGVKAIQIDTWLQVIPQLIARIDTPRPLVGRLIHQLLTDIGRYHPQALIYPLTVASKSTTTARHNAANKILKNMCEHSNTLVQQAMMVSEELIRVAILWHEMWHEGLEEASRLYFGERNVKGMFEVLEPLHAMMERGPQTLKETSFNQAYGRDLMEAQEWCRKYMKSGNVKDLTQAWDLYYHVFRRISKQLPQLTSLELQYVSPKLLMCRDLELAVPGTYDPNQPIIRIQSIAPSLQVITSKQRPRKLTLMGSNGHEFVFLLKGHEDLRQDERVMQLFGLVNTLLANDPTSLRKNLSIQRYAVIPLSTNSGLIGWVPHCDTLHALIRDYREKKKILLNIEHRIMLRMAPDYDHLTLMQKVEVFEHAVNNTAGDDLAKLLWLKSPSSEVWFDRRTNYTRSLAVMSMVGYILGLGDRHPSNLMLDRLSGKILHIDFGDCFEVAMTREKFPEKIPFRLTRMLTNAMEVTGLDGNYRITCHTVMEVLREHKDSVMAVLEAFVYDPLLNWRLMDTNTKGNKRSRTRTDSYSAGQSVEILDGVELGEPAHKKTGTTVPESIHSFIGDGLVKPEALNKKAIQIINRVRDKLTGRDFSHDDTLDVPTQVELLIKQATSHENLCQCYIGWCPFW
T3 sequence (P42336 with tags, fused parts or gaps limits assumed): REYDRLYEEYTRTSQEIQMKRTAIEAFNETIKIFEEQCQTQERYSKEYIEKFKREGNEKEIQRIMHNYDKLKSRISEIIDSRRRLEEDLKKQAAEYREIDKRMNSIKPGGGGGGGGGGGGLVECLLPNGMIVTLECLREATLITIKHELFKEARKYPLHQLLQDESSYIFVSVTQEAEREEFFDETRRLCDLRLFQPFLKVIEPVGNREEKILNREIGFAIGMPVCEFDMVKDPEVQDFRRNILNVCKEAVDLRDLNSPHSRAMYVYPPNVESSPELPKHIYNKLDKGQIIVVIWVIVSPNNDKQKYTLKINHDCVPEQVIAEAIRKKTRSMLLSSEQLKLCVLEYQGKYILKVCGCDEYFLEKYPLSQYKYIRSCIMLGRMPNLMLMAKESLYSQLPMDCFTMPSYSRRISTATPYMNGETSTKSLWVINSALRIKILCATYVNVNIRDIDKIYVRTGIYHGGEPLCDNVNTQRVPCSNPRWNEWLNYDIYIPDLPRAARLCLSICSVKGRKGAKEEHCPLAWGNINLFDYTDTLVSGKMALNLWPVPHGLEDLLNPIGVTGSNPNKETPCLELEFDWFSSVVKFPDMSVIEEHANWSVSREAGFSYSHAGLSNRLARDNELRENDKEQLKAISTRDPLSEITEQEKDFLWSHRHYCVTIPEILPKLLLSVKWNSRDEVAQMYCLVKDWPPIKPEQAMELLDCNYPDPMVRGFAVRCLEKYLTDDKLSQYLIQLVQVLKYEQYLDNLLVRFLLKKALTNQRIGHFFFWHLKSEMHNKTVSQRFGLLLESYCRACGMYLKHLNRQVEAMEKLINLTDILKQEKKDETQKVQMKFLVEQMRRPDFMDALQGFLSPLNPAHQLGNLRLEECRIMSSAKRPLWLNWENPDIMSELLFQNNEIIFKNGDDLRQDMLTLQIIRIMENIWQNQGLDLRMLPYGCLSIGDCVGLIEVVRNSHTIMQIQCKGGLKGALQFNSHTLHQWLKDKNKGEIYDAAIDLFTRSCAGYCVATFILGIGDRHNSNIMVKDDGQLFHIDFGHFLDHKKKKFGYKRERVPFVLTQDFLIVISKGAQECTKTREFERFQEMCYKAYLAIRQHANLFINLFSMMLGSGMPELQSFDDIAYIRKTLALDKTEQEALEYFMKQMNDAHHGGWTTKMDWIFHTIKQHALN
T1 sequence (P48736 144-1102 limits assumed): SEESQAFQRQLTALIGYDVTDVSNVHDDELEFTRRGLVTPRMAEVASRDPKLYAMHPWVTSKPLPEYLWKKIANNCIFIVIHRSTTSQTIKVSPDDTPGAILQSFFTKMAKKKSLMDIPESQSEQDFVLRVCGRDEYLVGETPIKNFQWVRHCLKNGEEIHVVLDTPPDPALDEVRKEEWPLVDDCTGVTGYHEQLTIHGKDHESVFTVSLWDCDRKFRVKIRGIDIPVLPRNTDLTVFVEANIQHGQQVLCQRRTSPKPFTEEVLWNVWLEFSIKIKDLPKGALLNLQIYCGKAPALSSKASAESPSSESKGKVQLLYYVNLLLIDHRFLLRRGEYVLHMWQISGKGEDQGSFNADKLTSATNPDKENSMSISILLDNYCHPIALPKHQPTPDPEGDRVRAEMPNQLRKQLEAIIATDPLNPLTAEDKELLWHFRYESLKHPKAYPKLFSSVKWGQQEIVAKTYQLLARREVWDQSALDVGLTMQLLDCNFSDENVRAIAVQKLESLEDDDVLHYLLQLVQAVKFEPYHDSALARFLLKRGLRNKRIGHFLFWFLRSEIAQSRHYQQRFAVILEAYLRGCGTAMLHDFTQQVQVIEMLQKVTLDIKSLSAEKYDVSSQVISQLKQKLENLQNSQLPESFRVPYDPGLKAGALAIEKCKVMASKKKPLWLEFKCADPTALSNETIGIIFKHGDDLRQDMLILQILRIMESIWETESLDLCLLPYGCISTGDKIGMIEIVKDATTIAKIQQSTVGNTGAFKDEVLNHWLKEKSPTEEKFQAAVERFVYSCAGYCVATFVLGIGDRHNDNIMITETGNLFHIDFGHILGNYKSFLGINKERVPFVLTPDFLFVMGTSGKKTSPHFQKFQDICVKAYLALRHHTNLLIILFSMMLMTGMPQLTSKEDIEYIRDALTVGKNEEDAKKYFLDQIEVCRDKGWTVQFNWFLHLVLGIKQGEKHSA

| solubility [1, 11] [µg/mL] | IC50 [2] [nM] | IC50 [3] [nM] | IC50 [4] [nM] | IC50 [5] [nM] | IC50 [6] [nM] | IC50 [7] [nM] | IC50 [8] [nM] | IC50 [9] [nM] | solubility ([1]; pH 6.8) [µg/mL] | SMILES | IC50 [10] [nM] |
| --- | --- | --- | --- | --- | --- | --- | --- | --- | --- | --- | --- |
| 355 (≈ 926 µM) | 335 | 465 | 250 | – | – | – | – | – | – | Cc1nn(C)c(C)c1-n1c(=O)n(C)c2cnc3ccc(-c4ccccc4)cc3c21 [Example 37.2, 3-Methyl-8-phenyl-1-(1,3,5-trimethyl-1H-pyrazol-4-yl)-1,3-dihydro-imidazo[4,5-c]quinolin-2-one] | – |
| – | 788 | 85 | 146 | 141 | 612 | 162 | 136 | 219 | – | CCn1nccc1-n1c(=O)n(C)c2cnc3ccc(-c4ccc(OC)nc4)cc3c21 [Example 2.6, 1-(2-Ethyl-2H-pyrazol-3-yl)-8-(6-methoxy-pyridin-3-yl)-3-methyl-1,3-dihydro-imidazo[4,5-c]quinolin-2-one] | – |
| 65 (≈ 148 µM) | 173 | – | 446 | – | – | 232 | – | – | – | Cc1nn(C)cc1-n1c(=O)n(C)c2cnc3ccc(-c4ccc(-c5nn[nH]n5)nc4)cc3c21 [Example 123, 1-(1,3-Dimethyl-1H-pyrazol-4-yl)-3-methyl-8-[6-(2H-tetrazol-5-yl)-pyridin-3-yl]-1,3-dihydro-imidazo[4,5-c]quinolin-2-one] | – |
| – | 391 | 18 | 32 | 375 | 205 | – | 273 | 602 | – | Cc1nn(C)cc1-n1c(=O)n(C)c2cnc3ccc(-c4ccc(NCCO)nc4)cc3c21 [Example 21.2] | 666 |
| – | 116 | 10 | 11 | – | 18 | 5 | – | – | – | Cc1nn(C)cc1-n1c(=O)n(C)c2cnc3ccc(-c4cncc(NS(C)(=O)=O)c4)cc3c21 [Example 120, N-{5-[1-(1,3-Dimethyl-1H-pyrazol-4-yl)-3-methyl-2-oxo-2,3-dihydro-1H-imidazo[4,5-c]quinolin-8-yl]-pyridin-3-yl}-methanesulfonamide] | 355 |
| – | 118 | 30 | 29 | 29 | 67 | 177 | 49 | 64 | – | COc1cc(-c2ccc3ncc4c(c3c2)n(-c2c(C)nn(C)c2C)c(=O)n4C)ccc1O [Example 31, 8-(4-Hydroxy-3-methoxy-phenyl)-3-methyl-1-(1,3,5-trimethyl-1H-pyrazol-4-yl)-1,3-dihydro-imidazo[4,5-c]quinolin-2-one] | – |
| – | 238 | 10 | 9 | < 5 | 6 | – | < 5 | 5 | – | COc1ccc(-c2ccc3ncc4c(c3c2)n(-c2cn(C)nc2Cl)c(=O)n4C)cc1OC [Example 1.10, 1-(3-Chloro-1-methyl-1H-pyrazol-4-yl)-8-(3,4-dimethoxy-phenyl)-3-methyl-1,3-dihydro-imidazo[4,5-c]quinolin-2-one] | 1 |
| – | 87 | 15 | 12 | – | 25 | 63 | – | – | – | COc1ncc(-c2ccc3ncc4c(c3c2)n(-c2cn(C)nc2C)c(=O)n4C)cc1F [Example 13, 1-(1,3-Dimethyl-1H-pyrazol-4-yl)-8-(5-fluoro-6-methoxy-pyridin-3-yl)-3-methyl-1,3-dihydro-imidazo[4,5-c]quinolin-2-one] | 10 |
| – | 760 | – | – | – | – | – | – | – | 2 (≈ 4.54 µM) | Cc1nn(C)cc1-n1c(=O)n(C)c2cnc3ccc(-c4ccc(C(=O)N(C)C)cc4)cc3c21 [Example 48, 4-[1-(1,3-Dimethyl-1H-pyrazol-4-yl)-3-methyl-2-oxo-2,3-dihydro-1H-imidazo[4,5-c]quinolin-8-yl]-N,N-dimethyl-benzamide] | – |
| – | 128 | 16 | 9 | 162 | 46 | 110 | 214 | 399 | – | Cc1nn(C)cc1-n1c(=O)n(C)c2cnc3ccc(-c4cc(O)cc(F)c4)cc3c21 [Example 33, 1-(1,3-Dimethyl-1H-pyrazol-4-yl)-8-(3-fluoro-5-hydroxy-phenyl)-3-methyl-1,3-dihydro-imidazo[4,5-c]quinolin-2-one] | – |
| 128 (≈ 345 µM) | 851 | 800 | 148 | 208 | – | – | 308 | – | – | Cc1nn(C)cc1-n1c(=O)n(C)c2cnc3ccc(-c4cnccn4)cc3c21 [Example 115, 1-(1,3-Dimethyl-1H-pyrazol-4-yl)-3-methyl-8-pyrazin-2-yl-1,3-dihydro-imidazo[4,5-c]quinolin-2-one] | – |
